Experimental data from patent publication US3932471A, “Azide” (priority 1973, dated 1976).
Converted amounts (≈) assume the structure as drawn.

Key:
Type in all cases: in vivo
[1] = system: Southern army worm (Prodenia eridania); experiment: Southern army worm spray test (AW); conditions: 72 h; contact activity rating, 50% mortality, three days
Protocol: (§1) The compounds are evaluated for biological activity against the following representative pests: Mexican bean beetle (Epilachna varivestis), Southern army worm (Prodenia eridania), housefly (Musca domestica), bean aphid (Aphis fabae), and red spider mite (Tetranychus sp.). The last two pests are treated both by contact and systemic application.
(§2) For purposes of comparison, results obtained with known Compound 7472, Compound 7577, and aldicarb are included in the test results. Each test compound is rated using the following scale:
Southern Army Worm Spray Test
Paired fully expanded primary leaves excised from Scarlet runner bean plants are maintained in plastic tubes containing water and sprayed with the test formulation prepared as described in Example 15. After the spray deposit on the leaves is dry, the paired leaves are separated. One leaf is placed onto 1.5 percent water agar and infested with 10 newly hatched Southern army worm larvae. The covered test receptacle is held at 72° F for three days and then the percent mortality is determined. Results of this test are shown in Table 7 as AW (Southern army worm spray test).

[2] = system: housefly (Musca domestica); experiment: Housefly spray test (HF); conditions: 72 h, contact activity rating, 50% mortality, three days
Protocol: as §1, §2
This test determines the insecticidal activity of the compound being tested against adult houseflies, Musca domestica. Stock formulations containing 500 ppm of each test chemical are prepared using the procedure described in Example 15 and are diluted to obtain the appropriate lower concentrations.
Ten adult flies are placed in a cylindrical screen cage 11/2 by 4 inches fabricated from 20-mesh stainless steel screening and are sprayed with 50 ml of the stock or diluted formulation. The flies are supplied food and drink from a dextrose solution by draping a paper wick over the outside of the screen cylinder and are able to feed and drink ad libitum. Percent mortality obtained is determined three days after treatment. Results of this test are shown in Table 7 as HF (housefly spray test).

[3] = system: Lygus Bug; experiment: Systemic test against Lygus bug
Excerpt: (§3) Systemic Test of Compound 7268 Against Lygus Bug and Spotted Cucumber Beetle
(§4) The techniques used are essentially the same for the systemic tests described above in Example 15. The test compound is Compound 7268. There is one Sieva bean plant per pot and five adult insects are caged on each plant. One plant is used for each test species.

[4] = system: Spotted Cucumber Beetle; experiment: Systemic test against spotted cucumber beetle; conditions: Diabrotica undecimpunctata
Excerpt: as §3, §4

[5] = system: Southern corn rootworm (Diabrotica undecimpunctata howardi); experiment: Soil activity against Southern corn rootworm; conditions: 120 h
Protocol: Activity of Compound 7268 Against Southern Corn Rootworm
The test organism is a strain of Southern corn rootworm (Diabrotica undecimpunctata howardi) resistant to chlorinated hydrocarbon insecticides and the test compound is Compound 7268. Duplicate samples of sand-soil mixtures are treated with appropriate volumes of test formulation to give the desired dosages. The sand-soil samples are in covered paper cups, and several hours after drenching, all cups are given a thorough shaking to provide complete and uniform mixing of the chemical throughout the soil. One day after treatment, two corn seedlings and five rootworms are placed into each cup and the lids replaced. Five days later, mortality is determined.

[6] = system: melon aphid (Aphis gosyppi); experiment: Systemic activity against melon aphid; conditions: cucumber seedlings
Excerpt: Systemic Activity of Compound 7268 Against Melon Aphid
The techniques used are essentially the same as for the systemic tests described above in Example 15. The test plants are cucumber seedlings; the test compound is Compound 7268; and the pest is the melon aphid (Aphis gosyppi).

[7] = system: Mexican Bean Beetle Larvae; experiment: Residual systemic activity against Mexican bean beetle larvae; conditions: Epilachna varivestis
Excerpt: Residual Systemic Activity of Compound 7268 Against Mexican Bean Beetle Larvae
Three furrows are opened in soil contained in 8 × 10 × 3 inch fiber pans and 12 Pinto bean seeds are evenly distributed in each furrow. The test compound is Compound 7268. Appropriate volumes of test formulation to give the desired dosages are applied over the seeds in the open furrows, and the furrows are immediately closed. At the indicated weekly intervals, one leaf is harvested from each row, placed onto water agar in a plastic Petri dish, and infested with 10 one-day-old bean beetle larvae. Mortality is determined three days later.

CNC(=O)ON=C(CSC)C(C)(C)C [Compound 7268, 3,3-dimethyl-2-methylcarbamyloximino-1-methylthiobutane]
LC50 [1]: > 500 µg/mL
LC50 [2]: 250 to 500 µg/mL (≈ 1150 to 2290 µM)
% Mortality ([3]; 0.5 lb/A, 3 days): 0%
% Mortality ([3]; 0.5 lb/A, 4 days): 60%
% Mortality ([3]; 0.5 lb/A, 6 days): 80%
% Mortality ([3]; 1 lb/A, 3 days): 80%
% Mortality ([3]; 1 lb/A, 4 days): 80%
% Mortality ([3]; 1 lb/A, 6 days): 100%
% Mortality ([3]; 2 lb/A, 3 days): 100%
% Mortality ([3]; 2 lb/A, 4 days): 100%
% Mortality ([3]; 2 lb/A, 6 days): 100%
mortality at 560.425 g/ha ([4]; 72 h): 20%
mortality at 1120.85 g/ha ([4]; 72 h): 30%
mortality at 2241.7 g/ha ([4]; 72 h): 60%
mortality at 560.425 g/ha ([4]; 96 h): 40%
mortality at 1120.85 g/ha ([4]; 96 h): 100%
mortality at 2241.7 g/ha ([4]; 96 h): 100%
mortality at 560.425 g/ha ([4]; 144 h): 80%
mortality at 1120.85 g/ha ([4]; 144 h): 100%
mortality at 2241.7 g/ha ([4]; 144 h): 100%
mortality at 1 lb/6" A [5]: 90%
mortality at 1.25 lb/6" A [5]: 100%
mortality at 2.5 lb/6" A [5]: 100%
% Control ([6]; 0.062 lb/A): 100%
% Control ([6]; 0.125 lb/A): 100%
% Control ([6]; 0.25 lb/A): 100%
% Control ([6]; 0.5 lb/A): 100%
mortality at 280.212 g/ha ([7]; 504 h): 100%
mortality at 560.425 g/ha ([7]; 504 h): 100%
mortality at 1120.85 g/ha ([7]; 504 h): 100%
mortality at 280.212 g/ha ([7]; 1176 h): 100%
mortality at 560.425 g/ha ([7]; 1176 h): 100%
mortality at 1120.85 g/ha ([7]; 1176 h): 100%
mortality at 280.212 g/ha ([7]; 1680 h): 100%
mortality at 560.425 g/ha ([7]; 1680 h): 100%
mortality at 1120.85 g/ha ([7]; 1680 h): 95%
mortality at 280.212 g/ha ([7]; 1848 h): 95%
mortality at 560.425 g/ha ([7]; 1848 h): 70%
mortality at 1120.85 g/ha ([7]; 1848 h): 95%
